Reference: PMC12752627, “Discovery of a Potent and Selective TEAD Degrader with Durable Degradation Activity” (Advanced Science, 2025)

Tested on: 867 cancer cell lines
Assay: PRISM assay (barcoded cell line screening, 5 days);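 further: top test concentration 10 mM in eight-point dilution series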
Type: cell-based
Set-up: KG-FP-003-AUC: scale not given here
Details: for PRISM AUC: 5 days
Experimental: The principle of the PRISM assay has been described elsewhere and was conducted as previously outlined by the PRISM team at the Broad Institute.^[ [14], [31] ^] In PRISM (MTS027) experiments, KG‐FP‐003 was tested across 867 different cancer cell lines. Cells were treated with eight concentration gradients, ranging from 4.6 nM to […], in triplicate dilutions over a period of five days. Each plate was treated with 20 µM bortezomib as a positive control and DMSO as a negative control. Three replicate experiments were performed for each compound. The resulting data were analyzed using GraphPad PRISM 9.5.

For `CNC(=O)c1cc2c(c(F)c1-c1c(Cl)c(F)cc3c1C[C@@](CN[C@H]1CC[C@H](C(=O)N4CCC(CC5CCN(C(=O)COc6ccc(N7CCC(=O)NC7=O)c(C)c6)CC5)CC4)CC1)(c1ccccc1)O3)[C@@H](O)[C@@H](C)C2` [KG-FP-003], the “PRISM AUC” value (Cell line: HOS) was 0.53, the “PRISM AUC” value (Cell line: KLE) was 0.53 and the KG-FP-003-AUC (DANG_PANCREAS ACH-000243 PR500) was 0.98. For the same molecule, the KG-FP-003-AUC (DAOY_CENTRAL_NERVOUS_SYSTEM ACH-000211 PR300) was 0.93, the KG-FP-003-AUC (DAOY_CENTRAL_NERVOUS_SYSTEM ACH-000211 PR500) was 0.92 and the KG-FP-003-AUC (DBTRG05MG_CENTRAL_NERVOUS_SYSTEM ACH-000863 PR500) was 0.64. It also gave a KG-FP-003-AUC (DEL_HAEMATOPOIETIC_AND_LYMPHOID_TISSUE ACH-000233 PR300) of 0.87, a KG-FP-003-AUC (DETROIT562_UPPER_AERODIGESTIVE_TRACT ACH-000207 PR500) of 0.81 and a KG-FP-003-AUC (DKMG_CENTRAL_NERVOUS_SYSTEM ACH-000244 PR500) of 0.85. It also gave a KG-FP-003-AUC (DL_SOFT_TISSUE ACH-001059 PR300) of 0.70, a KG-FP-003-AUC (DMS53_LUNG ACH-000698 PR300) of 1.00 and a KG-FP-003-AUC (DMS273_LUNG ACH-000749 PR500) of 0.99. The KG-FP-003-AUC (DND41_HAEMATOPOIETIC_AND_LYMPHOID_TISSUE ACH-000981 PR300) was 0.75, the KG-FP-003-AUC (DOHH2_HAEMATOPOIETIC_AND_LYMPHOID_TISSUE ACH-000056 PR300) was 0.76 and the KG-FP-003-AUC (DOTC24510_CERVIX ACH-001341 PR300) was 0.78. It also gave a KG-FP-003-AUC (DU145_PROSTATE ACH-000979 PR500) of 0.93, a KG-FP-003-AUC (DU4475_BREAST ACH-000258 PR300) of 0.97 and a KG-FP-003-AUC (DV90_LUNG ACH-000925 PR500) of 1.00. For the same molecule, the KG-FP-003-AUC (EB1_HAEMATOPOIETIC_AND_LYMPHOID_TISSUE ACH-000877 PR300) was 0.99, the KG-FP-003-AUC (EBC1_LUNG ACH-000563 PR500) was 0.77 and the KG-FP-003-AUC (ECC2_BILIARY_TRACT ACH-001997 PR300) was 0.76. For the same molecule, the KG-FP-003-AUC (ECGI10_OESOPHAGUS ACH-000305 PR500) was 0.96, the KG-FP-003-AUC (EFE184_ENDOMETRIUM ACH-000435 PR300) was 0.72 and the KG-FP-003-AUC (EFM19_BREAST ACH-000330 PR300) was 0.99. It also gave a KG-FP-003-AUC (EFM192A_BREAST ACH-000117 PR500) of 0.99, a KG-FP-003-AUC (EFO21_OVARY ACH-000308 PR500) of 0.71 and a KG-FP-003-AUC (EFO27_OVARY ACH-000936 PR500) of 0.77. For the same molecule, the KG-FP-003-AUC (EGI1_BILIARY_TRACT ACH-001494 PR300) was 0.88, the KG-FP-003-AUC (EKVX_LUNG ACH-000706 PR300) was 0.71 and the KG-FP-003-AUC (EM2_HAEMATOPOIETIC_AND_LYMPHOID_TISSUE ACH-000295 PR300) was 0.94. The KG-FP-003-AUC (EMTOKA_ENDOMETRIUM ACH-001495 PR300) was 0.83, the KG-FP-003-AUC (EOL1_HAEMATOPOIETIC_AND_LYMPHOID_TISSUE ACH-000198 PR300) was 0.69 and the KG-FP-003-AUC (ES2_OVARY ACH-000906 PR500) was 0.62. For the same molecule, the KG-FP-003-AUC (ESS1_ENDOMETRIUM ACH-000913 PR500) was 0.56, the KG-FP-003-AUC (EW8_BONE ACH-000499 PR300) was 0.98 and the KG-FP-003-AUC (EWS502_BONE ACH-000279 PR300) was 0.99. The KG-FP-003-AUC (EWS502_BONE ACH-000279 PR500) was 0.99, the KG-FP-003-AUC (FADU_UPPER_AERODIGESTIVE_TRACT ACH-000846 PR500) was 0.92 and the KG-FP-003-AUC (FLO1_OESOPHAGUS ACH-001500 PR300) was 0.75. The KG-FP-003-AUC (FTC133_THYROID ACH-000903 PR500) was 0.99, the KG-FP-003-AUC (FTC238_THYROID ACH-000897 PR500) was 0.91 and the KG-FP-003-AUC (G292CLONEA141B1_BONE ACH-000082 PR300) was 0.64. The KG-FP-003-AUC (G292CLONEA141B1_BONE ACH-000082 PR500) was 0.53, the KG-FP-003-AUC (G361_SKIN ACH-000572 PR500) was 1.00 and the KG-FP-003-AUC (G402_SOFT_TISSUE ACH-000375 PR300) was 0.43. The KG-FP-003-AUC (G402_SOFT_TISSUE ACH-000375 PR500) was 0.69, the KG-FP-003-AUC (G415_BILIARY_TRACT ACH-001850 PR300) was 0.65 and the KG-FP-003-AUC (GAMG_CENTRAL_NERVOUS_SYSTEM ACH-000098 PR500) was 0.45. The KG-FP-003-AUC (GB2_BILIARY_TRACT ACH-001961 PR300) was 0.92, the KG-FP-003-AUC (GCIY_STOMACH ACH-000047 PR500) was 0.98 and the KG-FP-003-AUC (GCT27_TESTIS ACH-001502 PR300) was 0.73. For the same molecule, the KG-FP-003-AUC (GCT_SOFT_TISSUE ACH-000835 PR500) was 0.53 and the KG-FP-003-AUC (GI1_CENTRAL_NERVOUS_SYSTEM ACH-000756 PR500) was 0.74.
